System: CYP1A2
Test: CYP1A2 enzyme activity in iPSC-hepatocytes (Luc-ME luminescence)
Type: cell-based, human
Conditions: in comparison to primary hepatocytes, 5 μM inducer for 48 h
Procedure: 100 μl of this luciferin medium was added to a 96-well white opaque plate with 100 μl luciferin detection reagent, and the luminescence signal was measured on a Cytation 3 Cell Imaging Multi-Mode Reader (BioTek Inc. Winooski, Vt.). After determining the activity, the amount of cells in each scaffold or sandwich culture was analyzed with Quant-iT™ Pico Green kit following the protocols described above.

## Cc1ccc2cc3c(ccc4ccccc43)c3c2c1CC3 [3-methylcholanthrene]
  induction of CYP1A2 activity: modest

Source: patent US20180016548A1, “ACELLULAR SCAFFOLDS FOR MATURATION OF IPSC-HEPATOCYTES” (Northwestern University, priority 2016, published 2018)
